Experimental data published in patent US9745613B2, “Compounds, substrates and methods related to histone deacetylases” (The Broad Institute, Inc., priority 2014, dated 2017).

Tests used:
MCF7 cells [1] = assay: SILAC-based global acetylation profiling; format: cell-based; details: compared to DMSO or BRD3811
From the text: Using these chemical tools, we compared the changes in global acetylation in a representative cell line known to express HDAC8 (i.e. MCF7) after treatment with each compound using Stable Isotope Labeling of Amino Acids in Cell Culture (SILAC)-based quantitative mass spectrometry (MS). (Ververis, K., Karagiannis, T. C. (2012) An atlas of histone deacetylase expression in breast cancer: fluorescence methodology for comparative semi-quantitative analysis. Am. J. Transl. Res. 4, 24-43). […] Global acetylation profiling was completed by digesting cellular proteins with trypsin and enriching the acetylated peptides by immunoprecipitation using an antibody specific for acetylated lysine residues.
MCF7 cells were grown and expanded from the same frozen vial stock, followed by differentially labeling with non-radioactive stable isotopic amino acids by growing in light, medium, and heavy SILAC media (see below for recipe), respectively (Ong, S. E., et al. Mol. Cell Proteomics 5, 376-386 (2002)). […]
EDTA, 2 μg/ml aprotinin (Sigma-Aldrich), 10 μg/ml leupeptin (Roche Applied Science), 1 mM phenylmethylsulfonyl fluoride (PMSF), and 5 mM sodium butyrate (Sigma-Aldrich). […] Protein concentrations were measured using a bicinchoninic acid (BCA) protein assay. […]

MCF7 cells [2] = assay: L1000 gene expression profiling; format: cell-based, human; details: for number of dose-responsive genes with altered expression: approximately 1,000 landmark genes
Description: Cells were incubated for 24 hours at 37° C. in a humidified incubator containing 5% CO2 before treatment.
These 1,000× stock solutions were first diluted (100-fold) in culture medium, and then the diluted compounds were transferred to the cell culture plates using CyBi-well vario 384-well tips (another 10-fold dilution). Ultimately, all compounds were diluted 1,000-fold to their desired serial concentrations with a final DMSO concentration of 0.1%. Treated cells were incubated for 24 hours prior to lysis. […] Cell lysate plates were sealed using a plate sealer, kept at room temperature for 30 minutes, and then frozen at −80° C. until L1000 gene expression profiling was performed.
In this study, we utilize L1000, a high-throughput, bead-based gene expression assay in which mRNA is extracted from cultured human cells treated with various chemical or genomic perturbagens (small molecules, gene knockdowns, or gene over-expression constructs) as previously described.^38 This mRNA is reverse-transcribed into first-strand cDNA. Gene specific probes containing barcodes and universal primer sites are annealed to the first strand cDNA. The probes are ligated to form a template for PCR. The template is PCR amplified with biotinylated-universal primers. The end products are biotinylated, fixed length, barcoded amplicons. The amplicons can then be mixed with Luminex beads that contain complementary barcodes to those encoded in each of the 1000 amplified landmark genes. These 1000 landmark genes were chosen as a reduced representation of the transcriptome and account for the majority of expression variation across many cellular contexts (Subramanian, et al., manuscript in preparation). These beads are then stained with fluorescent streptavidin-phycoerythrin (SAPE) and detected in 384-well plate format on a Luminex FlexMap flow cytometry-based scanner. The resulting readout is a measure of mean fluorescent intensity (MFI) for each landmark gene.

p21 = assay: Western blotting of p21 protein; format: cell-based; details: MCF7 cells, 10 μM, 48 h
Description: MCF7 cells were treated with compounds for 48 h, at which time, lysates were collected using RIPA buffer with added protease (Roche) and phosphatase (Roche) inhibitors. Electrophoresis was performed using NuPage 4-12% Bis-Tris gels (Invitrogen). Proteins were transferred to a nitrocellulose membrane and probed using antibodies for p21 (Cell Signaling) and GAPDH (Cell Signalling). Chemiluminescence was induced by subsequent incubation with HRP-linked secondary antibodies (GE Healthcare UK Ltd.) and treatment of the membrane with the appropriate ECL solutions (Thermo Scientific). Visualization was accomplished using a ChemiDoc MP System (Bio-Rad), and the raw data files were converted to jpegs using ImageJ (NIH).

[3] = system: p21 (CDKN1A) overexpression; assay: Connectivity map query analysis of L1000 signatures across cell lines; format: cell-based, human; details: across multiple cell lines, relative to 430 overexpressed genes
From the text: To assess whether our findings extend beyond the context of a single cell type and to incorporate into our analysis orthogonal biological perturbations, we expanded our gene expression studies using L1000 into several cell lines representative of distinct tissue types: PC3 (prostate), HEPG2 (liver), HCC515 (lung), HAlE (kidney), A375 (skin), A549 (lung), HT29 (colon). […] These candidate substrates of HDAC8 may provide a more targeted approach toward specific cancers (or other diseases) driven by the dysregulation of proteins and/or genes within this HDAC8 network. […] Efforts toward defining the functional consequences of the change in acetylation of these proteins by HDAC8 are ongoing.
The raw expression data are log 2-scaled, quantile normalized, and z-scored, such that a differential expression value is achieved for each gene in each well. In the standard L1000 protocol, each well corresponds to a different perturbagen and these differential expression values are collapsed across replicate wells to yield a differential expression signature for each perturbagen. […] To assess this, we did a meta-analysis of the CMap query results (i.e., lists of perturbations ordered by similarity to an input gene expression signature). […] We performed the same analysis with BRD3811 as well. […]

MCF-7 cells = assay: Global histone modification profiling; format: cell-based; details: 10 μM for 24 h
Description: Each row represents a unique combination of histone modifications (as denoted by “Histone Mark”) and each column represents a treatment of MCF-7 cells with the compound indicated at 10 μM for 24 h. Each compound treatment was performed in biological duplicate (R1 and R2). Each cell is colored by the log2-fold change over the average of the DMSO replicates as denoted in the scale bar. Global histone profiles were obtained in a manner essentially equivalent to a previous report. (Kim, J. H., Yu, S., Chen, J. D., Kong, A. N. (2013) The nuclear cofactor RAC3/AIB1/SRC-3 enhances Nrf2 signaling by interacting with transactivation domains. Oncogene 32, 514-527).

HDAC8 = molecular target: T1, HDAC8 (Homo sapiens, UniProt Q9BY41); assay: Caliper assay, biochemical HDAC IC50; details: relative to PCI-34051
T1 construct: purchased BPS Bioscience
T1 sequence (Q9BY41 1-377): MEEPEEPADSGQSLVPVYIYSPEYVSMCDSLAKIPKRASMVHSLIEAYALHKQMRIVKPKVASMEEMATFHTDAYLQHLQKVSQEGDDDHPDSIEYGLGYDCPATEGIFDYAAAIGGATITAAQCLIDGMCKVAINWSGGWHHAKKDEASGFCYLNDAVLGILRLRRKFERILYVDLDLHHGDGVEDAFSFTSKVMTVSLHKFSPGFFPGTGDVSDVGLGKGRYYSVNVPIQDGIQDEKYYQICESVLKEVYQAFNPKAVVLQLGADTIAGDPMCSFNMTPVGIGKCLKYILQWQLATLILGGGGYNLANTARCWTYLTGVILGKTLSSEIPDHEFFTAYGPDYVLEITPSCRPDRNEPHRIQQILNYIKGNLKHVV
Description: The biochemical determination of HDAC ICsos for compounds was performed as described previously (Zhang, Y.-L. et al., Fluorescent substrates for determining lysine modifying enzyme activity, 2013, Patent Application WO 2013067391). All HDACs were purchased from BPS Bioscience. The substrates Broad Substrate A and Broad Substrate B were synthesized in house, but can be purchased from PerkinElmer (Product number CLS960006 and CLS960007, respectively). All other reagents were purchased from Sigma. Caliper EZ reader II system was used to collect all data. Compounds were tested in duplicate in a 12-point dose curve with 3-fold serial dilution starting from 33.33 μM. Purified HDACs were incubated with 2 μM carboxyfluorescein (FAM)-labeled acetylated or trifluoroacetylated peptide substrate (Broad Substrate A and B, respectively) and test compound for 60 min at room temperature, in an HDAC assay buffer that contained 50 mM HEPES (pH 7.4), 100 mM KCl, 0.01% BSA and 0.001% Tween-20. […] Substrate and product were separated electrophoretically and fluorescence intensity in the substrate and product peaks was determined and analyzed by Labchip EZ Reader. […] Inhibition of HDAC10 and 11 was not measured due to either low purity of the available recombinant HDAC enzyme preparations and/or lack of activity of the enzymes and low substrate conversion.

**Q.** How did the “changes in histone acetylation status” value (MCF7 cells [1]) turn out when COc1ccc(Cn2ccc3ccc(C(=O)NO)cc32)cc1 [PCI-34051, reference compound] was run?
**A.** The value was “did not observe any significant changes”.

**Q.** And the “level of the p21 transcript” value (MCF7 cells [2]; dose range 0.04 μM-10 μM, 24 h)?
**A.** Its value is “dose-dependent increase”.

**Q.** And the “number of dose-responsive genes with altered expression” value (MCF7 cells [2]; dose range 0.04 μM-10 μM)?
**A.** Its value is 70 genes.

**Q.** What about the “p21 protein levels (western blot)” value (p21) of the same molecule?
**A.** The value was “increased p21”.

**Q.** What about the “average percentile rank of similarity to p21 (CDKN1A) overexpression signature” value [3] of the same molecule?
**A.** Its value is 96 percentile.

**Q.** And the histone acetylation (MCF-7 cells)?
**A.** The histone acetylation was “not altered”.

**Q.** How did the “reduction in potency for inhibition of HDAC8” value (HDAC8) turn out when COc1ccc(Cn2ccc3cc(C)c(C(=O)NO)cc32)cc1 [BRD3811] was run?
**A.** Its value is 1,000 fold.

**Q.** What about the “fold_change_at_10_uM CDKN1A (202284_s_at)” value (MCF7 cells [2]; MCF7, 10 uM, 24 h) of the same molecule?
**A.** The value was 1.956.

**Q.** What about the “fold_change_at_10_uM CSNK1A1 (206562_s_at)” value (MCF7 cells [2]; MCF7, 10 uM, 24 h) of the same molecule?
**A.** The value was 1.623.

**Q.** What about the “fold_change_at_10_uM DUSP3 (201536_at)” value (MCF7 cells [2]; MCF7, 10 uM, 24 h) of the same molecule?
**A.** Its value is 1.586.

**Q.** And the “fold_change_at_10_uM ERBB2 (216836_s_at)” value (MCF7 cells [2]; MCF7, 10 uM, 24 h)?
**A.** Its value is 1.614.

**Q.** What about the “fold_change_at_10_uM GHR (205498_at)” value (MCF7 cells [2]; MCF7, 10 uM, 24 h) of the same molecule?
**A.** The value was 0.7287.

**Q.** What about the “fold_change_at_10_uM HMGA2 (208025_s_at)” value (MCF7 cells [2]; MCF7, 10 uM, 24 h) of the same molecule?
**A.** Its value is 0.6073.

**Q.** And the “fold_change_at_10_uM HMOX1 (203665_at)” value (MCF7 cells [2]; MCF7, 10 uM, 24 h)?
**A.** Its value is 2.067.

**Q.** What about the “fold_change_at_10_uM PRSS23 (202458_at)” value (MCF7 cells [2]; MCF7, 10 uM, 24 h) of the same molecule?
**A.** The value was 0.6507.

**Q.** And the “fold_change_at_10_uM SLC25A46 (212833_at)” value (MCF7 cells [2]; MCF7, 10 uM, 24 h)?
**A.** Its value is 0.5635.

**Q.** What about the “fold_change_at_10_uM TXNRD1 (201266_at)” value (MCF7 cells [2]; MCF7, 10 uM, 24 h) of the same molecule?
**A.** The value was 1.298.

**Q.** What about the “fold_change_at_10_uM VAT1 (208626_s_at)” value (MCF7 cells [2]; MCF7, 10 uM, 24 h) of the same molecule?
**A.** Its value is 1.389.

**Q.** What about the “level of the p21 transcript” value (MCF7 cells [2]; dose range 0.04 μM-10 μM, 24 h) of the same molecule?
**A.** The value was “increased the level of p21 transcript only at the highest dose tested”.

**Q.** What about the “number of dose-responsive genes with altered expression” value (MCF7 cells [2]; dose range 0.04 M-10 M) of the same molecule?
**A.** Its value is 11 genes.

**Q.** What about the “average percentile rank of similarity to p21 (CDKN1A) overexpression signature” value [3] of the same molecule?
**A.** Its value is 66 percentile.
